# Source: PubChem BioAssay AID743417 (Broad Institute, 2014)
# Inconclusive results are not listed. Active and inactive are the calls of the source.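 The calls were made as follows: active = compounds lowering the luciferase signal with a fitted half-maximal dose at most twice their top valid dose (cut at about 30 µM in these data); inconclusive = flat fits with moderate signal loss, or poor fits; inactive = the rest.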
# System: Clone20 osteoblast Shn3 3'UTR firefly luciferase, 24 h
# Assay: Schnurri-3 3'UTR-luciferase signal suppressors – cell-based, Clone20 osteoblasts, luminescence, dry powder, set 2, dose response (AID 743417)
row,Structure (SMILES),AC50
1,Nc1nc(Cl)cc(N2CCC(c3cc(-c4ccc(Cl)cc4Cl)n[nH]3)CC2)n1,4940 nM
2,COC(=O)C1=C(c2ccc(OCc3ccccc3)cc2)C[C@@H]2CC[C@H]1N2C(=O)NCc1ccc(OC)c(OC)c1,19700 nM
3,CCC(C)(O)C(=O)OC1C(=O)OC2CC3C(C)=CC(=O)C(O)C3(C)C3C4(O)OCC23C1C(C)C4O (stereo unspecified),866 nM
4,O=C(Nc1ccccc1)C1=C(c2ccccc2)S(=O)(=O)CCS1(=O)=O,1370 nM
5,Cc1cccc(NC(=O)Cn2cc(C(=O)C3CC3)c3ccccc32)c1C,2390 nM
6,CC(=O)c1cn(CCOc2cc(C)ccc2C)c2ccccc12,1180 nM
7,O=C(Nc1ccc(Br)cc1)c1ccc(F)c(S(=O)(=O)NCc2cccs2)c1,3050 nM
8,CCOC(=O)c1cnc(-n2nc(C)cc2C)nc1NCc1ccc2c(c1)OCO2,8740 nM
9,Cc1ccc(C(=O)NC2CCCc3c2cnn3-c2ccc(F)cc2F)cn1 (stereo unspecified),921 nM
10,O=C(Nc1cc(F)ccc1F)N1CCN(c2ccnc3cc(Cl)ccc23)CC1,22800 nM
11,CCN1CCN(Cc2ccc(NC(=O)c3ccc(C)c(NC(=O)C(=O)c4c[nH]c5ccccc45)c3)cc2C(F)(F)F)CC1,7490 nM
12,CC(C)(C)n1nnnc1C(c1ccc(C(F)(F)F)cc1)N(Cc1ccccc1)Cc1ccco1 (stereo unspecified),4740 nM
13,CCN(CC)S(=O)(=O)c1ccc(S(=O)(=O)N2CCCC(C(=O)NC3CC3)C2)cc1 (stereo unspecified),2900 nM
14,COc1ccc(S(=O)(=O)N2CCN(c3cc(-c4ccccc4)nc4ncnn34)CC2)cc1,3890 nM
15,Cc1ccc(CNC(=O)c2cc3c(C)nc4ccccc4c3o2)cc1,2490 nM
16,CC[C@@H](C)[C@H](CNC)NC[C@@H](Cc1cccc2ccccc12)NCCc1cccc(C(F)(F)F)c1,8080 nM
17,C=CCOc1nc2c(c(=O)n(C)c(=O)n2C)n1Cc1ccc(Cl)cc1Cl,2150 nM
18,Cc1cc(C)c2sc(NNC(=O)c3ccc(S(=O)(=O)N4CCc5ccccc5C4)cc3)nc2c1,1800 nM
19,Cc1nnc(NC(=O)c2nc(S(=O)(=O)Cc3ccccc3C)ncc2Cl)s1,812 nM
20,CCN1CCN(Cc2ccc(NC(=O)c3ccc(C)c(NC(=O)c4cncc(-c5cccs5)c4)c3)cc2C(F)(F)F)CC1,808 nM
21,C=C1C(=O)C23C(O)C1CCC2C12CCCC(C)(COC(C)=O)C1C(O)C3(O)OC2 (stereo unspecified),771 nM
22,O=C(OCn1ncc(Cl)c(Cl)c1=O)c1ccccc1Cl,3560 nM
23,Cc1cc(NC(=O)CCN2CCN(C/C=C/c3ccccc3)CC2)ccc1Br,10200 nM
24,Fc1ccc2[nH]c3c(N4CCc5ccccc5C4)ncnc3c2c1,466 nM

row,Structure (SMILES),AC50
1,OC[C@@H]1CN(Cc2ccncc2)C[C@H](n2cnc3c(N4CCN(c5ccccc5)CC4)ncnc32)O1,2380 nM
2,CCCNC(=O)c1nnsc1S(=O)c1ccc(Cl)cc1 (stereo unspecified),1260 nM
3,CCOc1ccc(S(=O)(=O)NCc2ccncc2)cc1,261 nM
4,CCc1ccc(CNCc2ccc(OCC(O)CN(C)Cc3ccccc3)cc2)nc1 (stereo unspecified),4430 nM
5,Cc1c(CCOC(=O)CC23CC4CC(CC(C4)C2)C3)sc[n+]1CC(=O)c1ccc(Br)cc1,12900 nM
6,COC(=O)C1=C(c2ccc(OCc3ccccc3)cc2)C[C@@H]2CC[C@H]1N2C(=O)NCCCCc1ccccc1,2800 nM
7,COC(=O)/C(=C1/Oc2cc(C)oc(=O)c2S1)C(F)(F)F,4640 nM
8,CCN(CC)c1ccc(/C=C2/SC(=O)N(C(C)C)C2=O)o1,3460 nM
9,c1csc(CNc2ncnc3sccc23)c1,1800 nM
10,Cc1ccc(CS(=O)(=O)c2ncc(Cl)c(C(=O)Nc3nnc(C)s3)n2)cc1,639 nM
11,CC(=O)OC1(C)CC(C)C(=O)C(C(O)CC2CC(=O)NC(=O)C2)C1 (stereo unspecified),< 260 nM
12,COc1ccccc1-n1cc([C@@H]2C[C@H]3CN(c4ccccc4)C(=O)[C@]34CCCN24)cn1,1460 nM
13,NS(=O)(=O)c1ccc(CCNCc2cc(Cl)ccc2OCc2ccccc2)cc1,4460 nM
14,CCOC(=O)Cc1csc(SCC(=O)c2c(N)n(CC(C)C)c(=O)n(C)c2=O)n1,2350 nM
15,CCC(C)C1NC(=O)C(NC(=O)C(CC(C)C)N(C)C(=O)C2CCCN2C(=O)C(C)O)C(C)OC(=O)C(Cc2ccc(OC)cc2)N(C)C(=O)C2CCCN2C(=O)C(CC(C)C)NC(=O)[C@H](C)C(=O)[C@H](C(C)C)OC(=O)CC1O (stereo partly specified),< 260 nM
16,CCN(CC)S(=O)(=O)c1cc(NC(=O)C2CCN(c3ncnc4sc(C)c(C)c34)CC2)ccc1Cl,5080 nM
17,Cc1ccc(Nc2c(-c3ccccn3)nc3ccc(C)cn23)cc1,1740 nM
18,CCc1ccc(OCCNc2cc(N3CCNC(C)C3)ccc2[N+](=O)[O-])cc1 (stereo unspecified),15600 nM
19,COc1ccccc1C(NC(C)=O)c1cc(Cl)c2cccnc2c1O (stereo unspecified),2560 nM
20,O=C(c1cc2sccc2n1Cc1ccccc1)N1CCN(c2nc3ccccc3s2)CC1,1090 nM
21,O=C(CN1C(=O)c2ccccc2S1(=O)=O)c1ccc(Cl)cc1Cl,3530 nM
22,CCOC(=O)C1CCCN(S(=O)(=O)c2ccc(S(=O)(=O)N(CC)CC)cc2)C1 (stereo unspecified),512 nM
23,CC1=NOC(=O)/C1=C\c1ccc(-c2cc(Cl)ccc2Cl)o1,5690 nM
24,CC(C)CCC(C(=O)O)C(C)CC(=O)NNC(=O)c1ccco1 (stereo unspecified),> 70000 nM (inactive)

row,Structure (SMILES),AC50
1,COc1ccc(CNc2ncnc3ccccc23)cc1,674 nM
2,CC[C@@H](C(=O)[C@@H](C)[C@@H](O)[C@H](C)CCc1ccc(C)c(O)c1C(=O)O)[C@H]1O[C@](CC)([C@H]2CC[C@](O)(CC)[C@H](C)O2)C[C@@H]1C,7930 nM
3,Cc1cc(S(=O)(=O)NCc2ccncc2)c(C)cc1Br,1230 nM
4,Cc1ccc(S(=O)(=O)NCc2ccc(C(=O)N3CCN(c4ccc([N+](=O)[O-])cc4)CC3)cc2)cc1,3790 nM
5,CCN(CC)C(=O)c1oc2ccc(S(=O)(=O)N3CC(C)CC(C)C3)cc2c1C (stereo unspecified),1020 nM
6,C=CCn1c(C)cc(C2=NNC(=NCC)SC2)c1C,< 260 nM
7,O=C(Nc1ccc(-c2nc3ccccc3o2)cc1)c1ccc(N2CCOCC2)c([N+](=O)[O-])c1,3350 nM
8,COc1cc(C)c(C(=O)CC(=O)c2c(C)cc(OC)cc2C)c(C)c1,7400 nM
9,Cc1ccc(NC(=O)c2cc(S(=O)(=O)NCCC3=CCCCC3)ccc2F)cc1F,4130 nM
10,Cc1cccc(CCN2C(N(C)C)=NC[C@@H]2CC(C)C)c1,1450 nM
11,CC1Sc2ccc(S(=O)(=O)N3CCC(C(=O)Nc4cccc(Cl)c4)CC3)cc2NC1=O (stereo unspecified),3270 nM
12,COc1cccc(N2CCN(c3ncnc4c3[nH]c3ccc(F)cc34)CC2C)c1 (stereo unspecified),1310 nM
13,CN(Cc1ccc(Cl)c(Cl)c1)C(=O)c1cccc(S(=O)(=O)N2CCN(Cc3ccccc3)CC2)c1,3470 nM
14,Cn1nc(C(C)(C)C)cc1C(=O)N1CCCCC1c1cc(C(=O)Nc2cccc3c2CCCC3)no1 (stereo unspecified),10200 nM
15,COc1ccc(C(=O)Nc2nc3ccccc3s2)c(OC)c1,523 nM
16,Cc1cc(N2CCCCC2)nc(NCc2ccccc2)n1,4010 nM
17,Cc1nc2nc(C)n(CCN3CCOCC3)c(=O)c2c(-c2cccc([N+](=O)[O-])c2)c1C(=O)CCCCCCCCCCN1CCC(c2ccccc2)(c2ccccc2)CC1,7380 nM
18,Cc1cccc(Nc2nc(NCc3ccco3)c3ccccc3n2)c1,2050 nM
19,CC(C)(C)C(=O)/C(=C/c1ccc(Cl)cc1)n1cncn1,3750 nM
20,CCC(O)C1CCN(C(=O)c2cc(COc3ccc4ncccc4c3)on2)CC1 (stereo unspecified),505 nM
21,CCc1nnc(NC(=O)c2nc(S(=O)(=O)Cc3ccc(C)cc3)ncc2Cl)s1,3010 nM
22,COCCN(CC(=O)NC1CCCCC1)C(=O)/C=C/C(=O)c1ccc(OC)cc1O,2580 nM
23,CCCN(CCC)S(=O)(=O)c1ccc(C(=O)Nc2nnc(-c3cc(OC)cc(OC)c3)o2)cc1,2640 nM
